System: human knee osteoarthritis patients
Assay: Randomized placebo-controlled double-blind trial, WOMAC A (pain) evaluation by VAS
Type: in vivo
Details: 12 weeks after initial administration; for WOMAC-A Change (average change from baseline): MMRM estimate
Experimental: The effectiveness of the investigational drug (test drug (composition for treating joint disease of invention) or placebo) when administered 3 times at four-week intervals in the knee joint cavities of human knee osteoarthritis patients was investigated by a multi-center collaborative, randomized, placebo-controlled, double-blind, parallel-group comparison trial. The test drug and placebo were as follows:
Test drug: 3 mL of aqueous solution for injection containing 30 mg of test substance (3.6 mg as diclofenac);
The total amount (3 mL) of the test drug or placebo was administered (injected) into the knee joint cavities of the affected knees of the target patients on week 0, week 4 and week 8 for a total of three injections.
Effectiveness was evaluated by the following evaluation methods at the time of the initial administration and at evaluation points 1, 2, 4, 6, 8, 10 and 12 weeks after the initial administration.
Effectiveness was evaluated using the WOMAC® evaluation (The Journal of Rheumatology 1988; 15:12, p. 1833-1840) developed by Dr. Nicholas Bellamy. The WOMAC(r) evaluation has been established as a method for evaluating osteoarthritis (The Journal of Rheumatology 2000; 27:11, p. 2635-2641).
The patient response method used the VAS (Visual Analog Scale). With the VAS, the degree of a patient's own feelings in response to each question is indicated by the patient on a 100 mm line, and the degree is evaluated according to the position on the line. Position is represented as length from the left end of the scale. For example, a patient is asked the same question about pain in evaluations before and after administration, and the patient responds by indicating a position (degree) on the scale. Numerical values for improvement are then obtained based on the difference between the length indicated by the patient before administration (baseline) and the length indicated by the patient during each evaluation after administration.
The improvement effects were quantified based on the difference between the length indicated by the patient before administration (baseline) and the length indicated by the patient at the time of each evaluation after administration. The analysis results for questions about pain (WOMAC® A: evaluates intensity of pain during walking, etc.) are shown in Table 1 below. In the table, the lower the value of the change difference below 0, the greater the improvement effect.

In the case of “Sodium hyaluronate with introduced aminoethanol-diclofenac [Test Drug]”, the “WOMAC-A Change difference (test drug group minus placebo group)” value (patients with 25 ≤ BMI and 26 ≤ DP (weeks)) is reported as −13.7, the “WOMAC-A Change (average change from baseline)” value (patients with 25 ≤ BMI and 26 ≤ DP (weeks), VAS 100 mm line) is reported as −30.7 and the “WOMAC-A Change difference (test drug group minus placebo group)” value (patients with 25 ≤ BMI and 26 ≤ DP (weeks), listed as test drug) is reported as “extremely great improvement effect”. For the same substance, the “WOMAC-A Change difference (test drug group minus placebo group)” value (patients with BMI 25≤ kg/m^2) was −13.4, the “WOMAC-A Change (average change from baseline)” value (patients with BMI 25≤ kg/m^2, VAS 100 mm line) was −32.6 and the “WOMAC-A Change difference (test drug group minus placebo group)” value (patients with BMI <25 and/or DP <26 weeks) was −3.2. For the same substance, the “WOMAC-A Change (average change from baseline)” value (patients with BMI <25 and/or DP <26 weeks, VAS 100 mm line) was −27.2, the “WOMAC-A Change difference (test drug group minus placebo group)” value (patients with BMI <25 kg/m^2) was −2.1 and the “WOMAC-A Change (average change from baseline)” value (patients with BMI <25 kg/m^2, VAS 100 mm line) was −25.2. The “WOMAC-A Change (average change from baseline)” value (whole group, 30 mg test substance intra-articular at weeks 0, 4, 8, VAS 100 mm line) was −28.7 and the “WOMAC-A Change difference (test drug group minus placebo group)” value (whole group, VAS 100 mm line) was −7.0.

— US10925839B2, “Composition for treating joint disease and kit containing same” (SEIKAGAKU CORPORATION, priority 2017, dated 2021)
